Test results: patent publication US20180362485A1, “N-HYDROXYFORMAMIDE COMPOUNDS AND COMPOSITIONS COMPRISING THEM FOR USE AS BMP l, TLL1 AND/OR TLL2 INHIBITORS” (GlaxoSmithKline Intellectual Property (No. 2) Limited, priority 2015, published 2018)

Biological target: T1, human TLL1 (Homo sapiens, UniProt O43897, I156V/N221S/V284A)
T1 construct: a natural variant of full length native human TLL1 (NM_012464.4); made in house
T1 sequence (O43897 148-1013 I156V/N221S/V284A): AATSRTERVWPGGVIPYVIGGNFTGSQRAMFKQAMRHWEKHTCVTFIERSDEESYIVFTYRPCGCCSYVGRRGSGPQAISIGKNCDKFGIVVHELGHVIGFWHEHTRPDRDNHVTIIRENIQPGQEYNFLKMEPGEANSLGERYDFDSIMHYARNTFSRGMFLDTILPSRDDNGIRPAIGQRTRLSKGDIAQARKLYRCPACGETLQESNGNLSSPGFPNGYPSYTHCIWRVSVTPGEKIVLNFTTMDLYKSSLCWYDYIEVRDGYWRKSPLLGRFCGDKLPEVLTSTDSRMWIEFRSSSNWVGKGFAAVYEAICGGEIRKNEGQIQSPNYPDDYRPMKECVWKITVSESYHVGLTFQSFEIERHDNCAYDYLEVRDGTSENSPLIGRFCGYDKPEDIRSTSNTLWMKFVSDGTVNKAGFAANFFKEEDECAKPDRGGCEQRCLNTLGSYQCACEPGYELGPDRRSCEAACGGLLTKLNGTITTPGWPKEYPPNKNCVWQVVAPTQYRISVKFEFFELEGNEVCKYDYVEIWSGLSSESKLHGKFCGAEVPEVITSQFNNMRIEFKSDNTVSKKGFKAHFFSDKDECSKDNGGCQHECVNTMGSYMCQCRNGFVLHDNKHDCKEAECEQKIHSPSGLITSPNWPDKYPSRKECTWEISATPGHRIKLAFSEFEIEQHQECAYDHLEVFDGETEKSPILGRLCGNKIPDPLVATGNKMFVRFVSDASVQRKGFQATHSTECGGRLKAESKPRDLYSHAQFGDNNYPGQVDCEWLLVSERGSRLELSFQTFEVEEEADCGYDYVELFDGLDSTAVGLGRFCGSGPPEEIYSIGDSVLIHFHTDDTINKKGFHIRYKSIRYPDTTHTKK
Assay: Enzyme inhibition assay for human TLL1
Assay type: biochemical
Conditions: 2 nM TLL1, 0.8 μM promyostatin peptide substrate; read-out: pIC50, TLL1 enzyme inhibition assay (converted)
Excerpt: Buffer components are purchased from Sigma-Aldrich (St. Louis, Mo.) or an equivalent supplier. The promyostatin peptide substrate is custom synthesized by American Peptide Company (Sunnyvale, Calif.) using the myostatin protein sequence (Uniprot accession number 014793) surrounding the cleavage site reviewed in Hopkins, D. R., et al., 2007 Matrix Biology, 26, 508-523. The procollagen peptide substrate used in the high enzyme BMP1 cleavage assay is custom synthesized by 21st Century Biochemicals (Marlboro, Mass.) using the procollagen Iα protein sequence (Uniprot accession number P02452) surrounding the cleavage site reviewed in Hopkins, D. R., et al., 2007 Matrix Biology, 26, 508-523.
The DNA sequence encoding a natural variant of full length native human TLL1 (NM_012464.4) containing three amino acid substitutions I156V, N221S, V284A is amplified from human heart and brain cDNA and subcloned into the pCDN expression vector. The plasmid is electroporated into CHOE1A cells. […]
Inhibition of human TLL1 and TLL2 recombinant enzymes is measured in 10 ul endpoint assays in 384-well format using the same promyostatin peptide substrate employed in the above Enzyme Inhibition Assay for human BMP1. […] TLL1 and TLL2 reactions are quenched with 5 μl of 0.5 M EDTA and plates are read on a ViewLux (Perkin Elmer) multilabel plate reader using a 480 nm excitation filter and 540 nm emission filter. […]

IC50: < 398 nM
SMILES: CCCCC[C@@H](C(=O)NCNC(=O)c1ccc(-c2ccc(C(=O)O)cc2)o1)[C@@H](CC)N(O)C=O [WO2015/104684 Example 71, 4-(5-((((R)-2-((R)-1-(N-hydroxyformamido)propyl)heptanamido)methyl)carbamoyl)furan-2-yl)benzoic acid]
